Measurements published in patent US20260092071A1, “COMPOUNDS AND COMPOSITIONS AS SMARCA2/4 DEGRADERS AND USES THEREOF” (REGENTS OF THE UNIVERSITY OF MICHIGAN, priority 2022, published 2026).

Legend:
SMARCA4 = SMARCA4 (Homo sapiens, UniProt P51532); test: HiBiT assay for protein degradation, Hela SMARCA4-HiBiT cells (A series); format: cell-based; design: fuse HiBiT to the carboxy terminus of SMARCA2 (Promega CS302365) or SMARCA4 (Promega CS3023225); host or cells: HeLa (CRISPR/Cas9 HiBiT knock-in); details: Hela SMARCA4-HiBiT cells, 24 hours treatment; for DC50: read-out: SMARC A4 Hela HiBit DC50; for Dmax: read-out: SMARC A4 Hela HiBit Dmax
Method in brief: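 SMARCA4 degradation was measured in HeLa cells in which HiBiT had been knocked into the SMARCA4 carboxy terminus via CRISPR/Cas9 (Promega CS3023225). Cells were maintained in DMEM with FBS and penicillin-streptomycin. At the end of treatment, SMARCA4 levels were read by lytic HiBiT luminescence (Nano-Glo®, Promega N3050), and data were analyzed with GraphPad Prism.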

SMARCA2 = SMARCA2 (Homo sapiens, UniProt P51531); test: HiBiT assay for protein degradation, Hela SMARCA2-HiBiT cells (A series); format: cell-based; design: Hela cells were genetically modified via CRISPR/Cas9 to fuse HiBiT to the carboxy terminus of SMARCA2; host or cells: HeLa (CRISPR/Cas9 HiBiT knock-in); details: Hela SMARCA2-HiBiT cells, 24 hours treatment; for DC50: read-out: SMARC A2 Hela HiBit DC50; for Dmax: read-out: SMARC A2 Hela HiBit Dmax (%);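 for SMARC A2 Hela HiBit Dmax (%): 24 h compound treatment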
Method in brief: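 SMARCA2 degradation was measured in HeLa cells whose endogenous SMARCA2 carries a carboxy-terminal HiBiT tag introduced by CRISPR/Cas9 (Promega CS302365). Cells were maintained in DMEM with FBS and penicillin-streptomycin. SMARCA2 levels were read at the end of the experiment by Nano-Glo® HiBiT lytic luminescence (Promega N3050) and analyzed in GraphPad Prism.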

Chain of SMARCA2 (P51531 whole entry): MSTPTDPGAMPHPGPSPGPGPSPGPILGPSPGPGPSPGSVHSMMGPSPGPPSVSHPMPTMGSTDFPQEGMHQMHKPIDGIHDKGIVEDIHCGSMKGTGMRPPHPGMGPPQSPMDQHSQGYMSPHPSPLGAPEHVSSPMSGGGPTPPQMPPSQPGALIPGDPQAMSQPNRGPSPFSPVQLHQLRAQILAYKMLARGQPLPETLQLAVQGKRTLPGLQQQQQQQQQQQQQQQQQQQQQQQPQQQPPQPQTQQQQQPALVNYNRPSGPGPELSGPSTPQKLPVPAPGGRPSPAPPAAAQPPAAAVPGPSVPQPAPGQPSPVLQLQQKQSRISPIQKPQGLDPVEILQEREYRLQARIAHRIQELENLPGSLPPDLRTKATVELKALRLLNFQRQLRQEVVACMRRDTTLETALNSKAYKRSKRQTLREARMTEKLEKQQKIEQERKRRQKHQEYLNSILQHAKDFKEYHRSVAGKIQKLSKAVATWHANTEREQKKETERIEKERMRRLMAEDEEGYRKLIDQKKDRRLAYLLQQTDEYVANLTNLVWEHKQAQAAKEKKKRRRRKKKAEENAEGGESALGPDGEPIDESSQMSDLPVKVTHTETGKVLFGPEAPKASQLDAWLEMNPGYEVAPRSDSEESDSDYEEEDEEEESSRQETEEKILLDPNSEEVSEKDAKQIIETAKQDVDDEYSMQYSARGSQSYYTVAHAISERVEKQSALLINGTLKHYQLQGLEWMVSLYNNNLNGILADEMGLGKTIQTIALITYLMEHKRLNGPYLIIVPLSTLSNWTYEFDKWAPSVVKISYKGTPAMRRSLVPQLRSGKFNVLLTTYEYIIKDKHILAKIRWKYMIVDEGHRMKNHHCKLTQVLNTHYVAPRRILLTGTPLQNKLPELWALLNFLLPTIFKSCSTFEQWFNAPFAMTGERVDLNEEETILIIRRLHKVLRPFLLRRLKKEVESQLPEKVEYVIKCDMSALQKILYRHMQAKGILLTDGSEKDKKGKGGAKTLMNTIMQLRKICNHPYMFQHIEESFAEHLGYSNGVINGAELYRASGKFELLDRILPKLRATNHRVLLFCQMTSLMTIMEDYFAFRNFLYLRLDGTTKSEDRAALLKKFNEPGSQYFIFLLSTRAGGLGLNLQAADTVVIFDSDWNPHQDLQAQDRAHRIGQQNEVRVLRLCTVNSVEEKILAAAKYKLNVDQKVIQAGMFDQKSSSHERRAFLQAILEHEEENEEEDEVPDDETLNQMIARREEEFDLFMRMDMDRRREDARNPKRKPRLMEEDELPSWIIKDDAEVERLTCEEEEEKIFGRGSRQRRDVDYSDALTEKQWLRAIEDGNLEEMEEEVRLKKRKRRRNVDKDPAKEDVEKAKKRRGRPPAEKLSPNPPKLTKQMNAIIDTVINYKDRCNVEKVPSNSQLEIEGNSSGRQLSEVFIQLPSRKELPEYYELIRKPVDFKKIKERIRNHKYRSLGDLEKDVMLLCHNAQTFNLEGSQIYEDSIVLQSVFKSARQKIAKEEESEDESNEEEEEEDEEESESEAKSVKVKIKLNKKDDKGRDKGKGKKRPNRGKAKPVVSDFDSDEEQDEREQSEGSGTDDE
Chain of SMARCA4 (P51532 whole entry): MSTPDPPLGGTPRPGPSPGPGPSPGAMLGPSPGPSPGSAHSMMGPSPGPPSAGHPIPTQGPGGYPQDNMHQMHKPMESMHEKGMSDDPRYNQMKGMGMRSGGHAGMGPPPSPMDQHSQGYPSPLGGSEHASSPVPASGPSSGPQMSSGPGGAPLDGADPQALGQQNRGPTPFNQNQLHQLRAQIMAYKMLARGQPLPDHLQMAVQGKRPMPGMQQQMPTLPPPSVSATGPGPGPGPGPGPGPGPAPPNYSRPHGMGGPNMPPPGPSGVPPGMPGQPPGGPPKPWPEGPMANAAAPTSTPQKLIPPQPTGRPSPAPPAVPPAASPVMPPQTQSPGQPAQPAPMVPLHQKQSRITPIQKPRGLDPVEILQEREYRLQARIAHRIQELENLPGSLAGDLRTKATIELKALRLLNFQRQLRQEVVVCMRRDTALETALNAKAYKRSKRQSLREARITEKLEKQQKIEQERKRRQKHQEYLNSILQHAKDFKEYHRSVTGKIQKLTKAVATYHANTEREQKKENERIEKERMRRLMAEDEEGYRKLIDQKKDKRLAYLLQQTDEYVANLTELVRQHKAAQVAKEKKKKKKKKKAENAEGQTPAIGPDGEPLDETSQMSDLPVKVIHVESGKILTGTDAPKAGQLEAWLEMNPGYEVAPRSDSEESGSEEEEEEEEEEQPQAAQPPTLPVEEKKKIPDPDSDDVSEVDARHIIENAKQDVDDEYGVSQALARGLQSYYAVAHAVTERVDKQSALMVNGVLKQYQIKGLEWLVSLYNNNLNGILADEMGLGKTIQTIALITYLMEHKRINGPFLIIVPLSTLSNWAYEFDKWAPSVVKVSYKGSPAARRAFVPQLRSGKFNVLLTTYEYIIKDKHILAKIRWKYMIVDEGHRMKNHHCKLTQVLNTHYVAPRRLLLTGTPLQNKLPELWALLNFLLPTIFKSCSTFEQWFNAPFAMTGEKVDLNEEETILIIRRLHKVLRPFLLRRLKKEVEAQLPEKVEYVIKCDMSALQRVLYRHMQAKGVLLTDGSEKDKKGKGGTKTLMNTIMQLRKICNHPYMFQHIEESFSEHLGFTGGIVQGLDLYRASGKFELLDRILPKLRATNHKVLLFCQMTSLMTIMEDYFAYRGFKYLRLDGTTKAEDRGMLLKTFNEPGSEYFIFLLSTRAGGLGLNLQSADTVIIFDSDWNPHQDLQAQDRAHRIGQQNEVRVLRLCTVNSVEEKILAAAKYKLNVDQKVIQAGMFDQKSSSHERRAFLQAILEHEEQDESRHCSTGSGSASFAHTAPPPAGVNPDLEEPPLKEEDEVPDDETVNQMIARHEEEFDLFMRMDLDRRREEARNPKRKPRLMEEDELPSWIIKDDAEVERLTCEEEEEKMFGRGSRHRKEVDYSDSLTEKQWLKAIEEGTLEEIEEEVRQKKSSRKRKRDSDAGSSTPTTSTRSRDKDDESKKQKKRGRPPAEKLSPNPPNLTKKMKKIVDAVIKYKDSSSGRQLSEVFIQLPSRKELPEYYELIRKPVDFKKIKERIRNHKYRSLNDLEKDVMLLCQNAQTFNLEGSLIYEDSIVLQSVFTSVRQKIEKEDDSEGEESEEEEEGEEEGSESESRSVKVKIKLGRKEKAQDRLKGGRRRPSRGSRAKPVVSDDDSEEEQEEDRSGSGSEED

SMILES	DC50 (SMARCA4)	Dmax (SMARCA4)	DC50 (SMARCA2)	Dmax (SMARCA2)
Cc1ncsc1-c1ccc([C@H](CN2CC3(COC3)C2)NC(=O)[C@@H]2C[C@@H](O)CN2C(=O)[C@@H](n2cc([C@H]3CC[C@H](CN4CCC(c5ccc6c(c5)-n5c(nc(=O)c7c(Cl)cccc75)C65CCCCC5)CC4)CC3)nn2)C(C)(C)C)cc1 [Compound A96, (2S,4R)-1-((S)-2-(4-((1r,4S)-4-((4-(4′-chloro-5′-oxo-5′H-spiro[cyclohexane-1,7′-indolo[1,2-a]quinazolin]-10′-yl)piperidin-1-yl)methyl)cyclohexyl)-1H-1,2,3-triazol-1-yl)-3,3-dimethylbutanoyl)-4-hydroxy-N—((R)-1-(4-(4-methylthiazol-5-yl)phenyl)-2-(2-oxa-6-azaspiro[3.3]heptan-6-yl)ethyl)pyrrolidine-2-carboxamide]	> 1000 nM	50 to 69%	< 10 nM	> 90%
Cc1ncsc1-c1ccc([C@H](CN2CCC3(COC3)C2)NC(=O)[C@@H]2C[C@@H](O)CN2C(=O)[C@@H](n2cc([C@H]3CC[C@H](CN4CCC(c5ccc6c(c5)-n5c(nc(=O)c7c(Cl)cccc75)C65CCCCC5)CC4)CC3)nn2)C(C)(C)C)cc1 [Compound A97, (2S,4R)-1-((S)-2-(4-((1r,4S)-4-((4-(4′-chloro-5′-oxo-5′H-spiro[cyclohexane-1,7′-indolo[1,2-a]quinazolin]-10′-yl)piperidin-1-yl)methyl)cyclohexyl)-1H-1,2,3-triazol-1-yl)-3,3-dimethylbutanoyl)-4-hydroxy-N—((R)-1-(4-(4-methylthiazol-5-yl)phenyl)-2-(2-oxa-6-azaspiro[3.4]octan-6-yl)ethyl)pyrrolidine-2-carboxamide]	> 1000 nM	50 to 69%	< 10 nM	> 90%
Cc1ncsc1-c1ccc([C@H](CN2CC3(COC3)C2)NC(=O)[C@@H]2C[C@@H](O)CN2C(=O)[C@@H](n2cc([C@H]3CC[C@H](CN4CCC(c5ccc6c(c5)-n5c(nc(=O)c7c(Cl)cccc75)C6(C)C)CC4)CC3)nn2)C(C)(C)C)cc1 [Compound A98, (2S,4R)-1-((S)-2-(4-((1r,4S)-4-((4-(4-chloro-7,7-dimethyl-5-oxo-5,7-dihydroindolo[1,2-a]quinazolin-10-yl)piperidin-1-yl)methyl)cyclohexyl)-1H-1,2,3-triazol-1-yl)-3,3-dimethylbutanoyl)-4-hydroxy-N—((R)-1-(4-(4-methylthiazol-5-yl)phenyl)-2-(2-oxa-6-azaspiro[3.3]heptan-6-yl)ethyl)pyrrolidine-2-carboxamide]	> 1000 nM	< 50%	< 10 nM	> 90%
Cc1ncsc1-c1ccc([C@H](CN2CCC3(COC3)C2)NC(=O)[C@@H]2C[C@@H](O)CN2C(=O)[C@@H](n2cc([C@H]3CC[C@H](CN4CCC(c5ccc6c(c5)-n5c(nc(=O)c7c(Cl)cccc75)C6(C)C)CC4)CC3)nn2)C(C)(C)C)cc1 [Compound A99, (2S,4R)-1-((S)-2-(4-((1r,4S)-4-((4-(4-chloro-7,7-dimethyl-5-oxo-5,7-dihydroindolo[1,2-a]quinazolin-10-yl)piperidin-1-yl)methyl)cyclohexyl)-1H-1,2,3-triazol-1-yl)-3,3-dimethylbutanoyl)-4-hydroxy-N—((R)-1-(4-(4-methylthiazol-5-yl)phenyl)-2-(2-oxa-6-azaspiro[3.4]octan-6-yl)ethyl)pyrrolidine-2-carboxamide]	> 1000 nM	< 50%	< 10 nM	> 90%
Cc1ncsc1-c1ccc([C@H](CN2CCOCC2)NC(=O)[C@@H]2C[C@@H](O)CN2C(=O)[C@H](C2CCOCC2)n2cc([C@H]3CC[C@H](CN4CCC(c5ccc6c(c5)-n5c(nc(=O)c7c(Cl)cccc75)C65CCCCC5)CC4)CC3)nn2)cc1 [Compound A100, (2S,4R)-1-((S)-2-(4-((1r,4S)-4-((4-(4′-chloro-5′-oxo-5′H-spiro[cyclohexane-1,7′-indolo[1,2-a]quinazolin]-10′-yl)piperidin-1-yl)methyl)cyclohexyl)-1H-1,2,3-triazol-1-yl)-2-(tetrahydro-2H-pyran-4-yl)acetyl)-4-hydroxy-N—((R)-1-(4-(4-methylthiazol-5-yl)phenyl)-2-morpholinoethyl)pyrrolidine-2-carboxamide]	> 1000 nM	50 to 69%	< 10 nM	> 90%
Cc1ncsc1-c1ccc([C@H](CN2CCOCC2)NC(=O)[C@@H]2C[C@@H](O)CN2C(=O)[C@H](C2CCOCC2)n2cc([C@H]3CC[C@H](CN4CCC(c5ccc6c(c5)-n5c(nc(=O)c7c(Br)cccc75)C65CCCCC5)CC4)CC3)nn2)cc1 [Compound A101, (2S,4R)-1-((S)-2-(4-((1r,4S)-4-((4-(4′-bromo-5′-oxo-5′H-spiro[cyclohexane-1,7′-indolo[1,2-a]quinazolin]-10′-yl)piperidin-1-yl)methyl)cyclohexyl)-1H-1,2,3-triazol-1-yl)-2-(tetrahydro-2H-pyran-4-yl)acetyl)-4-hydroxy-N-((R)-1-(4-(4-methylthiazol-5-yl)phenyl)-2-morpholinoethyl)pyrrolidine-2-carboxamide]	10 to 100 nM	70 to 90%	< 10 nM	> 90%
Cc1ncsc1-c1ccc([C@H](CN2CCOCC2)NC(=O)[C@@H]2C[C@@H](O)CN2C(=O)[C@H](C2CCOCC2)n2cc([C@H]3CC[C@H](CN4CCC(c5ccc6c(c5)-n5c(nc(=O)c7c(Cl)cccc75)C6(C)C)CC4)CC3)nn2)cc1 [Compound A102, (2S,4R)-1-((S)-2-(4-((1r,4S)-4-((4-(4-chloro-7,7-dimethyl-5-oxo-5,7-dihydroindolo[1,2-a]quinazolin-10-yl)piperidin-1-yl)methyl)cyclohexyl)-1H-1,2,3-triazol-1-yl)-2-(tetrahydro-2H-pyran-4-yl)acetyl)-4-hydroxy-N-((R)-1-(4-(4-methylthiazol-5-yl)phenyl)-2-morpholinoethyl)pyrrolidine-2-carboxamide]	> 1000 nM	50 to 69%	< 10 nM	> 90%
Cc1ncsc1-c1ccc([C@H](CN2CCOCC2)NC(=O)[C@@H]2C[C@@H](O)CN2C(=O)[C@H](C(C)C)n2cc([C@H]3CC[C@H](CN4CCC(c5ccc6c(c5)-n5c(nc(=O)c7c(Cl)cccc75)C65CCCCC5)CC4)CC3)nn2)cc1 [Compound A103, (2S,4R)-1-((S)-2-(4-((1r,4S)-4-((4-(4′-chloro-5′-oxo-5′H-spiro[cyclohexane-1,7′-indolo[1,2-a]quinazolin]-10′-yl)piperidin-1-yl)methyl)cyclohexyl)-1H-1,2,3-triazol-1-yl)-3-methylbutanoyl)-4-hydroxy-N-((R)-1-(4-(4-methylthiazol-5-yl)phenyl)-2-morpholinoethyl)pyrrolidine-2-carboxamide]	< 10 nM	50 to 69%	< 10 nM	> 90%
Cc1ncsc1-c1ccc([C@H](CN2CCOCC2)NC(=O)[C@@H]2C[C@@H](O)CN2C(=O)[C@H](C(C)C)n2cc([C@H]3CC[C@H](CN4CCC(c5ccc6c(c5)-n5c(nc(=O)c7c(Cl)cccc75)C6(C)C)CC4)CC3)nn2)cc1 [Compound A104, (2S,4R)-1-((S)-2-(4-((1r,4S)-4-((4-(4-chloro-7,7-dimethyl-5-oxo-5,7-dihydroindolo[1,2-a]quinazolin-10-yl)piperidin-1-yl)methyl)cyclohexyl)-1H-1,2,3-triazol-1-yl)-3-methylbutanoyl)-4-hydroxy-N-((R)-1-(4-(4-methylthiazol-5-yl)phenyl)-2-morpholinoethyl)pyrrolidine-2-carboxamide]	> 1000 nM	50 to 69%	< 10 nM	> 90%
Cc1ncsc1-c1ccc([C@H](C)NC(=O)[C@@H]2C[C@@H](O)CN2C(=O)[C@H](C2CCN(C(=O)CN3CCC(c4ccc5c(c4)-n4c(nc(=O)c6c(Cl)cccc64)C54CCCCC4)CC3)CC2)n2cc(C3CC3)nn2)cc1 [Compound A105, (2S,4R)-1-((S)-2-(1-(2-(4-(4′-chloro-5′-oxo-5′H-spiro[cyclohexane-1,7′-indolo[1,2-a]quinazolin]-10′-yl)piperidin-1-yl)acetyl)piperidin-4-yl)-2-(4-cyclopropyl-1H-1,2,3-triazol-1-yl)acetyl)-4-hydroxy-N—((S)-1-(4-(4-methylthiazol-5-yl)phenyl)ethyl)pyrrolidine-2-carboxamide]	> 1000 nM	< 50%	100 to 1000 nM	50 to 69%
